Laboratory results from paper PMC4519900 (International Journal of Molecular Sciences, 2015).
Read-outs that look alike come from different tables or passages of the source.

Tests used:
[1] = biological target: T1, A. suum QFR (complex II) (Ascaris suum, UniProt O44074+P92506+P92507); experiment: SQR activity assay of A. suum complex II (QFR) in mitochondrial fraction, UQ2 consumption at 278 nm; format: biochemical
T1 construct: from tissue; host or cells: adult Ascaris suum muscle, mitochondrial fraction
Method: (§1) The CP buffer containing the prepared mitochondrial fraction was replaced with 50 mM Tris–HCl buffer, pH 7.4 containing 1 mM disodium malonate, 210 mM mannitol, 10 mM sucrose, and 1 mM EDTA. Final concentrations of the A. suum and porcine mitochondria (quantified protein) were adjusted to 10 and 20 mg/mL, respectively. Mitochondrial fractions were separated in 50 μL aliquots, frozen by liquid nitrogen and stored at 193 K until use. Prior to assay, the mitochondrial suspensions were thawed on ice and SQR was reactivated by incubation at 298 K for 30 min in equal volume of 50 mM potassium phosphate buffer pH 7.4, containing 337 μM disodium malonate. SQR assay buffer composed of 50 mM potassium phosphate buffer pH 7.4, 0.1% SML, 2 mM potassium cyanide, and 60 μM of 2,3-dimethoxy-5-methyl-6-geranyl-1,4-benzoquinone (UQ2) was pre-equilibrated at 298 K for 20 min. The assay mixture was constituted by adding 15 μg (A. suum) or 30 μg (porcine) of reactivated mitochondrial fraction to the assay buffer and incubated for 3 min for background activity measurements. The SQR activity was initiated by the addition of 10 mM disodium succinate, and recorded as rate of UQ2 consumption, monitored at 278 nm (ε278 = 15 mM^−1·cm^−1) for three minutes in 1 mL quartz cuvettes with a Shimadzu UV-3000 dual wavelength spectrophotometer (Shimazu, Kyoto, Japan). Inhibition of SQR activities were assayed in the presence of varying concentration of inhibitors (diluted in DMSO) and the IC50s calculated as the concentration of inhibitor that caused 50% decrease in SQR activity relative to control (DMSO).

[2] = biological target: T2, porcine SQR (complex II) (Sus scrofa, UniProt A5GZW8+D0VWV4+Q007T0); experiment: SQR activity assay of porcine complex II in mitochondrial fraction, UQ2 consumption at 278 nm; format: biochemical
T2 construct: from tissue; host or cells: porcine heart muscle, mitochondrial fraction
Method: as §1

[3] = biological target: T1, A. suum QFR (complex II); details: read-out: IC50 for A. suum QFR; cited from earlier work
[4] = system: bovine SQR; design: method as in PMID 3209470, PMID 12515859, PMID 19242645; details: cited from earlier work
[5] = porcine complex II, SQR assay, 298 K, pH 7.4, read-out: IC50 (SQR)

T1 sequence (Q33862 19-645): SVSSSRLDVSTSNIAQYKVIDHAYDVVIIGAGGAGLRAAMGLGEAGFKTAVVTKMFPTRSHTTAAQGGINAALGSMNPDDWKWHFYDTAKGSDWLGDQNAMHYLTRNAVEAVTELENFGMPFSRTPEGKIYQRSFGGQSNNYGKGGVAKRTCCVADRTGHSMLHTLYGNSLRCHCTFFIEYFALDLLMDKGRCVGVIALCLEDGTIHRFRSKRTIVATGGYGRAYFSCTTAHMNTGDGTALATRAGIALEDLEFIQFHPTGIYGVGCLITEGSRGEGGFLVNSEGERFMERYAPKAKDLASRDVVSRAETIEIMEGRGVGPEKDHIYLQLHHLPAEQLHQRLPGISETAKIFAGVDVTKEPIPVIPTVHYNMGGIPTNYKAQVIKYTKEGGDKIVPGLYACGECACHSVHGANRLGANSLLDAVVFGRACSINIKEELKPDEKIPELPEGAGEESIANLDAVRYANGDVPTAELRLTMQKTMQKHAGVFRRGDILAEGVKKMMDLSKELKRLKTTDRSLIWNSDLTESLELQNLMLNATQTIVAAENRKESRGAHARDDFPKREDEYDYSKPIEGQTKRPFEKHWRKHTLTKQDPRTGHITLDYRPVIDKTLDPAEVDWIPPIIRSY
T1 sequence (P92507 26-156): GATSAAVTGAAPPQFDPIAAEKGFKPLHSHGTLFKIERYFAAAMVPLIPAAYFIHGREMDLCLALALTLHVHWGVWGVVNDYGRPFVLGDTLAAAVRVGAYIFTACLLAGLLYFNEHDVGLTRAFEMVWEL
T1 sequence (P92506 32-188): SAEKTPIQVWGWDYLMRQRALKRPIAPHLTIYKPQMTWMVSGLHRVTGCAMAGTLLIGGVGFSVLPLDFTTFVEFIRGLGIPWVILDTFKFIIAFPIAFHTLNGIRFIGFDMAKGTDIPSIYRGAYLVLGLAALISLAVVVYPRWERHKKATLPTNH
T1 sequence (O44074 22-282): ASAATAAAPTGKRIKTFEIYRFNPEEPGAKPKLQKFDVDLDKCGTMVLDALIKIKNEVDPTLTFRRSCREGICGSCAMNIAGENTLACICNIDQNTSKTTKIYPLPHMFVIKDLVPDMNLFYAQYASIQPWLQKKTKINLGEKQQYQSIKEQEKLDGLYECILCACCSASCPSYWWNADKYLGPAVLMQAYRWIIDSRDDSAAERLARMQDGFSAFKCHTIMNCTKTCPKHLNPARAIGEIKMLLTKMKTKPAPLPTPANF
T2 sequence (Q007T0 29-280): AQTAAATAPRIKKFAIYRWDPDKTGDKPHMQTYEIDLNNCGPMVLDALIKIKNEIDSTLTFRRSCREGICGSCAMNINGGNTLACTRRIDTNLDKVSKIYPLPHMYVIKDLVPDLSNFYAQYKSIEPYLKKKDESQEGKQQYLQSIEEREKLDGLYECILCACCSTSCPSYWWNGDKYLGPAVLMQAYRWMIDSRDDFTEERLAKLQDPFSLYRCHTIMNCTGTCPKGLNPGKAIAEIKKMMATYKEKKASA
T2 sequence (D0VWV4 30-169): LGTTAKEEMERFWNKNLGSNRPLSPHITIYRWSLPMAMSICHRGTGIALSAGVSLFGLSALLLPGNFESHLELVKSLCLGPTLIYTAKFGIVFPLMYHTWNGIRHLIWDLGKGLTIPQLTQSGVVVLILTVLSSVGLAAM
T2 sequence (A5GZW8 57-159 limits assumed): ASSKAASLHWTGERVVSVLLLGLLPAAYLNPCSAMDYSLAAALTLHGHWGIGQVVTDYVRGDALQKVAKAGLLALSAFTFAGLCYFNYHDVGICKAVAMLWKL
T2 sequence (Q0QF01 43-664 partner): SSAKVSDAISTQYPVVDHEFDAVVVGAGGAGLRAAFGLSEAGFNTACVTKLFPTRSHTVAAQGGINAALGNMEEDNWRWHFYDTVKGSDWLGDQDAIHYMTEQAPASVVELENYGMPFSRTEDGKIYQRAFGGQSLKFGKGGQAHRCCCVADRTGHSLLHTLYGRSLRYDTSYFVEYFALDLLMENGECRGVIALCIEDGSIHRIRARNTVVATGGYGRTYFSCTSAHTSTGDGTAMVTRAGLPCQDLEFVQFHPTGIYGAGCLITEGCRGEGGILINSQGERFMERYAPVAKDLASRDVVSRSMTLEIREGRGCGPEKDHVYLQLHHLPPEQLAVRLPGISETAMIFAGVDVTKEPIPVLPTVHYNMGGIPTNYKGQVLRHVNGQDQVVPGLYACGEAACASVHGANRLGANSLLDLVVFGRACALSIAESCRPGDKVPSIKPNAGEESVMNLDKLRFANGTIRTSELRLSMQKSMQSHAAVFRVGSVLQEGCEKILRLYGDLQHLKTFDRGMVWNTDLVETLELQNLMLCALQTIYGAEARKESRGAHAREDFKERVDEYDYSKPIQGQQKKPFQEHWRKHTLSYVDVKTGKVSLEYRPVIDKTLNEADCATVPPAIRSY

| SMILES | IC50 [1] | IC50 [2, 5] | further results |
| --- | --- | --- | --- |
| Cc1ccccc1C(=O)Nc1cccc(OC(C)C)c1 [derivative 2] | 515 nM | 90000 nM |  |
| CC(C)Oc1cccc(NC(=O)c2ccccc2C(F)(F)F)c1 [flutolanil, N-[3-(isopropyloxy)phenyl]-2-(trifluoromethyl)benzamide, reference compound] | 58.1 nM |  | IC50 ([1]; IC50 (QFR), A. suum complex II, SQR assay, 298 K, pH 7.4): 58 nM; IC50 [2]: 45900 nM |
| O=C(Nc1cccc(Oc2ccccc2)c1)c1ccccc1C(F)(F)F [derivative 4] | 79.4 nM | 16200 nM |  |
| CC(C)(C)c1ccc(CNC(=O)c2ccccc2C(F)(F)F)cc1 [NN23] | 5.5 nM | 111000 nM | selectivity index (IC50 porcine SQR / IC50 A. suum QFR) ([1]; A. suum QFR versus porcine SQR): about 20,000 folds |
| O=C(Nc1cccc(Oc2c(F)c(F)c(F)c(F)c2F)c1)c1ccccc1C(F)(F)F [derivative 6] | 330 nM | 236000 nM |  |
| COc1[nH]c(=O)c(C(=O)[C@@H](C)C[C@H](C)[C@@H](Cl)CCl)c(O)c1OC [Atpenin A5] |  |  | IC50 [3]: 12 nM; IC50 [4]: 3.6 nM |
| CC(C)Oc1cccc(NC(=O)c2ccccc2I)c1 [derivative 1] | 72.3 nM | 6430 nM |  |
| CN(C)Cc1cccc(NC(=O)c2ccccc2C(F)(F)F)c1 [derivative 3] | 3420 nM | 256000 nM | increase of IC50 for A. suum QFR relative to flutolanil [1]: 59 fold; increase of IC50 for porcine SQR relative to flutolanil ([2]; versus flutolanil): 6 fold |
| O=C(NCc1ccc(Cl)cc1Cl)c1ccccc1C(F)(F)F [NN28] | 28 nM |  | IC10 against porcine SQR ([2]; porcine complex II, SQR assay): > 90000 nM |
| O=C(Nc1cccc(-c2ccccc2)c1)c1ccccc1C(F)(F)F [derivative 5] | 24.5 nM | 8610 nM |  |
